Experimental findings from paper PMC10856407, “Polymer Nanoparticles with 2-HP-β-Cyclodextrin for Enhanced Retention of Uptake into HCE-T Cells” (Molecules, 2024) are described below.

Assay [1] has as its system HCE-T cells. Put plainly: Endocytic transport mechanism in nanoparticle uptake (endocytosis inhibitors, flow cytometry). The conditions noted are these: EIPA 100 μM, Chlorpromazine 30 μM, Nystain 30 μM, p < 0.01. The format is cell-based, human. On the procedure: The main nanoparticle entry processes involve the clathrin structure, caveolin/lipid raft structure, and macropinocytosis. The experiment was conducted by separately adding different endocytosis transport inhibitors to examine the degree of action during nanoparticle uptake. The clathrin structural inhibitor Chlorpromazine (30 μM), the caveolin/lipid raft structure inhibitor Nystain (30 μM), and the macropinocytosis inhibitor derivative amiloride (EIPA, 100 μM) were added seperately. […] Serum-free cultures of varying endocytotic transport inhibitors were inspected using the method described above (Study of Active Transport Mechanism in Nanoparticle Uptake by HCE-T Cells).
For orientation: Flow cytometry measures light scatter and fluorescence of single cells or particles in a stream.

For assay [2], the system named is HCE-T cells. The conditions noted are these: sodium azide 1 mg·mL^−1, 1 h pre-incubation, 4 h uptake, NPs 20 μg·mL^−1, p < 0.01.
Procedure: HCE-T cells were seeded at a density of 1 × 10^5 cells·well^−1 in a six-well plate, and the culture medium was discarded when the cell density reached 80%. […] Then, fluorescently labeled nanoparticles were added for a final concentration of 20 μg·mL^−1. After continuing the uptake experiment for 4 h, the fluorescently labeled nanoparticle solution was discarded, washed three times with PBS, and digested using trypsin. The cells were blown out with serum cultures, collected, and centrifuged at 1000 rpm. The supernatant was aspirated to remove the fluorescent material adsorbed on the cell surface. Finally, 0.3 mL of the cells suspended in PBS were transferred into flow tubes and assayed using flow cytometry (BD FACSCanto II, Becton, Dickinson and Company, New York, NY, USA). The fluorescence intensity was quantified by collecting 10,000 cells, and X-means were used for comparing the differences in cell uptake between the groups.

In the case of `CN(C)CCCN1c2ccccc2Sc2ccc(Cl)cc21` [Chlorpromazine], in assay [1] (Homo sapiens, read-out: inhibition of HCE-T cell uptake of (2-HP-β-CD)/PLGA NPs), the inhibition at 30 µM came out at 46.4%. In the case of `CCN(c1nc(N)c(C(=O)N=C(N)N)nc1Cl)C(C)C` [EIPA, 5-(N-ethyl-N-isopropyl) amiloride], in assay [1], the “inhibition of HCE-T cell uptake of (2-HP-β-CD)/PLGA NPs” value is 53.3%. For `[N-]=[N+]=[N-].[Na+]` [sodium azide], the “reduction of uptake of (2-HP-β-CD)/PLGA NPs” value in assay [2] is given as 60.0%. In the case of Nystain, in assay [1], the “inhibition of HCE-T cell uptake of (2-HP-β-CD)/PLGA NPs” value is 38.3%.
